Data taken from PMC7411887, “New Paracyclophanylthiazoles with Anti-Leukemia Activity: Design, Synthesis, Molecular Docking, and Mechanistic Studies” (Molecules, 2020).

Legend:
Test in all cases: NCI single-dose screen (SRB)
Type in all cases: cell-based
HCT-116 = settings: Homo sapiens; Colon Cancer HCT-116; 10^−5 M; read-out: Growth inhibition percentage
Method: (§1) The methodology of the NCI anticancer screening was described in detail elsewhere (http://www.dtp.nci.nih.gov). […] Tested compounds were added to the culture at a single concentration (10^−5 M) and the cultures were incubated for 48 h. End-point determinations were made with a protein binding dye, SRB. Results for each tested compound were reported as the percentage growth of the treated cells when compared to the untreated control cells. The percentage growth was evaluated spectrophotometrically versus controls not treated with test agents. All experiments were repeated three times (Table 1).
(§2) Briefly, the protocol was performed on 60 human tumor cell lines derived from different nine neoplastic diseases. […] If the results obtained met selection criteria, then the compound was tested again on all 60 cell lines in 5× 10-fold dilutions with the top dose being 10^−4 M or 150 μg/mL. Detailed methods are described in the Supplementary Materials related to this article.
(§3) on their site (http://www.dtp.nci.nih.gov). But briefly, the protocol performed at sixty human
(§4) National Cancer Institute, Bethesda, USA. If the results obtained meet selection criteria, then the
(§5) 10-4 molar or 150 μg/mL. […]

HT29 = settings: Homo sapiens, HT-29; Colon Cancer HT29; 10^−5 M; read-out: Growth inhibition percentage
Method: as §1, §2, §3, §4, §5

OVCAR-5 = settings: Homo sapiens; Ovarian Cancer OVCAR-5; 10^−5 M; read-out: Growth inhibition percentage
Method: as §1, §2, §3, §4, §5

SR = settings: Homo sapiens; Leukemia SR; 10^−5 M; read-out: Growth inhibition percentage
Method: as §1, §2, §3, §4, §5

U251 = settings: Homo sapiens, U-251; CNS Cancer U251; 10^−5 M; read-out: Growth inhibition percentage
Method: as §1, §2, §3, §4, §5

SNB-75 = settings: Homo sapiens; CNS Cancer SNB-75; 10^−5 M; read-out: Growth inhibition percentage
Method: as §1, §2, §3, §4, §5

NCI/ADR-RES = settings: Homo sapiens; Ovarian Cancer NCI/ADR-RES; 10^−5 M; read-out: Growth inhibition percentage
Method: as §1, §2, §3, §4, §5

SNB-19 = settings: Homo sapiens; CNS Cancer SNB-19; 10^−5 M; read-out: Growth inhibition percentage
Method: as §1, §2, §3, §4, §5

SK-MEL-2 = settings: Homo sapiens; Melanoma SK-MEL-2; 10^−5 M; read-out: Growth inhibition percentage
Method: as §1, §2, §3, §4, §5

IGROV1 = settings: Homo sapiens, IGROV-1; Ovarian Cancer IGROV1; 10^−5 M; read-out: Growth inhibition percentage
Method: as §1, §2, §3, §4, §5

UACC-257 = settings: Homo sapiens; Melanoma UACC-257; 10^−5 M; read-out: Growth inhibition percentage
Method: as §1, §2, §3, §4, §5

M14 = settings: Homo sapiens; Melanoma M14; 10^−5 M; read-out: Growth inhibition percentage
Method: as §1, §2, §3, §4, §5

HOP-92 = settings: Homo sapiens; Non-Small-Cell Lung Cancer HOP-92; 10^−5 M; read-out: Growth inhibition percentage
Method: as §1, §2, §3, §4, §5

SF-539 = settings: Homo sapiens; CNS Cancer SF-539; 10^−5 M; read-out: Growth inhibition percentage
Method: as §1, §2, §3, §4, §5

EKVX = settings: Homo sapiens; Non-Small-Cell Lung Cancer EKVX; 10^−5 M; read-out: Growth inhibition percentage
Method: as §1, §2, §3, §4, §5

ACHN = settings: Homo sapiens; Renal Cancer ACHN; 10^−5 M; read-out: Growth inhibition percentage
Method: as §1, §2, §3, §4, §5

MDA-MB-231/ATCC = settings: Homo sapiens; Breast Cancer MDA-MB-231/ATCC; 10^−5 M; read-out: Growth inhibition percentage
Method: as §1, §2, §3, §4, §5

SK-MEL-28 = settings: Homo sapiens; Melanoma SK-MEL-28; 10^−5 M; read-out: Growth inhibition percentage
Method: as §1, §2, §3, §4, §5

BT-549 = settings: Homo sapiens; Breast Cancer BT-549; 10^−5 M; read-out: Growth inhibition percentage
Method: as §1, §2, §3, §4, §5

SK-MEL-5 = settings: Homo sapiens; Melanoma SK-MEL-5; 10^−5 M; read-out: Growth inhibition percentage
Method: as §1, §2, §3, §4, §5

HCT-15 = settings: Homo sapiens; Colon Cancer HCT-15; 10^−5 M; read-out: Growth inhibition percentage
Method: as §1, §2, §3, §4, §5

MDA-MB-468 = settings: Homo sapiens; Breast Cancer MDA-MB-468; 10^−5 M; read-out: Growth inhibition percentage
Method: as §1, §2, §3, §4, §5

HS 578T = settings: Homo sapiens; Breast Cancer HS 578T; 10^−5 M; read-out: Growth inhibition percentage
Method: as §1, §2, §3, §4, §5

COLO 205 = settings: Homo sapiens; Colon Cancer COLO 205; 10^−5 M; read-out: Growth inhibition percentage
Method: as §1, §2, §3, §4, §5

PC-3 = settings: Homo sapiens; Prostate Cancer PC-3; 10^−5 M; read-out: Growth inhibition percentage
Method: as §1, §2, §3, §4, §5

NCI-H460 = settings: Homo sapiens; Non-Small-Cell Lung Cancer NCI-H460; 10^−5 M; read-out: Growth inhibition percentage
Method: as §1, §2, §3, §4, §5

NCI-H226 = settings: Homo sapiens; Non-Small-Cell Lung Cancer NCI-H226; 10^−5 M; read-out: Growth inhibition percentage
Method: as §1, §2, §3, §4, §5

SN12C = settings: Homo sapiens; Renal Cancer SN12C; 10^−5 M; read-out: Growth inhibition percentage
Method: as §1, §2, §3, §4, §5

DU-145 = settings: Homo sapiens; Prostate Cancer DU-145; 10^−5 M; read-out: Growth inhibition percentage
Method: as §1, §2, §3, §4, §5

NCI-H23 = settings: Homo sapiens; Non-Small-Cell Lung Cancer NCI-H23; 10^−5 M; read-out: Growth inhibition percentage
Method: as §1, §2, §3, §4, §5

`CCN1C(=O)C(=CC(=O)OC)SC1=NNC(=O)c1cc2ccc1CCc1ccc(cc1)CC2` [Compound 3e] showed an inhibition at 10 µM (HCT-116) of 50.5%, an inhibition at 10 µM (HT29) of 54.8% and an inhibition at 10 µM (OVCAR-5) of 0%. For the same compound, the inhibition at 10 µM (SR) was 113%, the inhibition at 10 µM (U251) was 15.6% and the inhibition at 10 µM (SNB-75) was 21.2%. The inhibition at 10 µM (NCI/ADR-RES) was 13.5%, the inhibition at 10 µM (SNB-19) was 14.4% and the inhibition at 10 µM (SK-MEL-2) was 5.78%. It also gave an inhibition at 10 µM (IGROV1) of 11.6%, an inhibition at 10 µM (UACC-257) of 7.26% and an inhibition at 10 µM (M14) of 12.8%. For the same compound, the inhibition at 10 µM (HOP-92) was 18.4%, the inhibition at 10 µM (SF-539) was 9.82% and the inhibition at 10 µM (EKVX) was 6.44%. For the same compound, the inhibition at 10 µM (ACHN) was 10.4%, the inhibition at 10 µM (MDA-MB-231/ATCC) was 3.95% and the inhibition at 10 µM (SK-MEL-28) was 0%. It also gave an inhibition at 10 µM (BT-549) of 7.73%, an inhibition at 10 µM (SK-MEL-5) of 7.5% and an inhibition at 10 µM (HCT-15) of 31.6%. The inhibition at 10 µM (MDA-MB-468) was 12.7%, the inhibition at 10 µM (HS 578T) was 1.03% and the inhibition at 10 µM (COLO 205) was 0%. It also gave an inhibition at 10 µM (PC-3) of 43.3%, an inhibition at 10 µM (NCI-H460) of 0% and an inhibition at 10 µM (NCI-H226) of 7.31%. The inhibition at 10 µM (SN12C) was 4.97%, the inhibition at 10 µM (DU-145) was 0% and the inhibition at 10 µM (NCI-H23) was 0.4%.
